Laboratory results published in patent US20080064679A1, “Water Soluble Cannabinoids” (priority 2004, published 2008).
Like-named read-outs stand apart in the source and are kept apart here.

Legend:
mice [1] = assay: Spontaneous activity (S.A.), mouse tetrad; type: in vivo; settings: Mus musculus, iv, vehicle E:E:S (1:1:18), read-out: S.A. ED50 (reducing spontaneous activity)
mice [2] = assay: Tail-flick antinociception (T.F.), mouse tetrad; type: in vivo; settings: Mus musculus, iv, mice, i.v., vehicle E:E:S (1:1:18); read-out: T.F. ED50 (antinociception in the tail-flick procedure)
mice [3] = assay: Tetrad model, all four behavioral measures together (time course, oral and i.c.v. administration); type: in vivo, mouse; settings: i.c.v.; analogs dissolved in water, THC in emulphor:ethanol:saline; Table 5 not given
[4] = Method: By “water-soluble” we mean that 1 mg of material in 1 ml of water gives a clear solution and is water miscible.
(§1) For the in vivo studies, the drugs were dissolved in either saline or emulphor:ethanol:saline (E:E:S) as indicated.

mice [5] = assay: Rectal temperature (R.T.), mouse tetrad; type: in vivo; settings: Mus musculus, iv, vehicle E:E:S (1:1:18), read-out: R.T. ED50 (lowering rectal temperature)
human CB1 receptor [6] = target: T1, human CB1 receptor (Homo sapiens, UniProt P21554); assay: CB1 receptor binding, [3H]CP55,940 displacement in membranes of transfected cells; settings: CB1 Ki
T1 construct: expressed in transfected cells; b94 says CHO for CB1
T1 sequence (P21554 whole entry): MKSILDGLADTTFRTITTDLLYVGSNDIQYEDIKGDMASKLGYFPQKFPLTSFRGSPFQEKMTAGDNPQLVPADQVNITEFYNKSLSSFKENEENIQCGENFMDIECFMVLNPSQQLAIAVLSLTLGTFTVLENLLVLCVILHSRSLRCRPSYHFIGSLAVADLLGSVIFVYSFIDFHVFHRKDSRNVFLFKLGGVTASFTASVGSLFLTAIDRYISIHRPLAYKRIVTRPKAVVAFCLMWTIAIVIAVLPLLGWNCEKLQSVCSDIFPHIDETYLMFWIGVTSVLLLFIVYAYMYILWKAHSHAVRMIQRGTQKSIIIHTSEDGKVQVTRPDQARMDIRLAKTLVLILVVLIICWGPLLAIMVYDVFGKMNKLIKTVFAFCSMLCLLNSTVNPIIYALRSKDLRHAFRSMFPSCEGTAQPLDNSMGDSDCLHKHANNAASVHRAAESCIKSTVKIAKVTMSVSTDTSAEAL
Method: as §1
(§2) cLogP calculations. Absolute solubility determinations were not performed. Rather, cLogP calculations were performed using the CS ChemDraw Ultra software (Cambridge Soft Corporation, Cambridge, Mass.). Receptor Binding. HEK-293 cells stably expressing the human CB1 receptor were cultured in DMEM with 10% FBS and Chinese Hamster Ovary (CHO) cells stably expressing the human CB2 receptor were cultured in DMEM with 10% FCS. Cells were harvested by replacement of the media with cold phosphate-buffered saline containing 1 mM EDTA followed by centrifugation at 1000×g for 5 min at 4° C. The pellet was resuspended in 50 mM Tris-HCl containing 320 mM sucrose, 2 mM EDTA and 5 mM MgCl2 (pH 7.4) (centrifugation buffer), then centrifuged at 1000×g for 10 min at 4° C., and the resulting supernatant was saved. This process was repeated twice. The supernatant fractions were combined and centrifuged at 40,000×g for 30 min at 4° C. The resulting P2 pellet was resuspended in assay buffer (50 mM Tris-HCl (pH 7.4), 3 mM MgCl2, 0.2 mM EGTA, and 100 mM NaCl) and protein was determined by the method of Bradford ENRfu(Bradford 1976). Membranes were stored at −80° C. until use. […] The assay was incubated at 30° C. for 1 hr and terminated by addition of ice cold 50 mM Tris-HCl plus BSA (1 mg/ml) (pH 7.4) followed by filtration under vacuum through Whatman GF/B glass fiber filters with 3 washes with cold Tris buffer. Bound radioactivity was determined by liquid scintillation spectrophotometry at 50% efficiency after extraction by shaking samples for 30-60 min with Budget-Solve scintillation fluid. Data are reported as the mean±SEM of three experiments, each performed in triplicate. Ki values were calculated from displacement data using EBDA (Equilibrium Binding Data Analysis; BIOSOFT, Milltown, N.J.). [^35S]GTPγS Binding Assays. Concentration-effect curves were generated by incubating membranes (10 μg prepared from CB1 expressing cells as described above) in assay buffer containing BSA (1 mg/ml) with various concentrations of test compounds in the presence of 20 μM GDP and 0.1 nM [^35S]GTPγS in a 1 ml total volume. […] Basal binding was assessed in the absence of agonist, and nonspecific binding was measured in the presence of 10 μM GTPγS. The reaction was incubated for 90 min at 30° C. and terminated by filtration under vacuum through Whatman GF/B glass fiber filters with 3 washes with cold (4° C.) Tris buffer (50 mM Tris-HCl, pH 7.4). Bound radioactivity was determined by liquid scintillation spectrophotometry at 95% efficiency after extraction overnight in ScintiSafe Econo 1 scintillation fluid. Data are reported as mean±SEM of three experiments, each performed in triplicate. Nonlinear regression analysis was conducted by iterative fitting using JMP (SAS for Macintosh). Net-stimulated [^35S]GTPγS binding is defined as [^35S]GTPγS binding in the presence of drug minus basal and percent stimulation is expressed as (net stimulated [^35S]GTPγS binding/basal)×100%. Behavioral Evaluations. All animals were allowed to acclimate to the observation room overnight. Behavioral effects were assessed in the tetrad model in order to measure potency in producing antinociception, catalepsy, hypothermia, and hypomobility. The baselines for tail-flick latency (2-4 seconds) and rectal temperature were determined prior to i.v. injections. Baseline rectal temperatures were measured using a telethermometer and a thermometer probe inserted to 25 mm (Yellow Springs Instrument Co., Yellow Springs, Ohio). The mice were then given either an i.v. i.c.v. injection of the analog. The mice were placed in individual photocell activity chambers 5 min later. Spontaneous activity was monitored for 10 min in a Digiscan Animal Activity Monitor (Omnitech Electronice, Inc., Columbus, Ohio) as measured by the number of interruptions of 16 photocell beams per chamber.

human CB2 receptor = target: T2, human CB2 receptor (Homo sapiens, UniProt P34972); assay: CB2 receptor binding, [3H]CP55,940 displacement in membranes of transfected cells; settings: Table 1B, mean±SEM
T2 construct: expressed in transfected cells; b94 says HEK for CB2
T2 sequence (P34972 whole entry): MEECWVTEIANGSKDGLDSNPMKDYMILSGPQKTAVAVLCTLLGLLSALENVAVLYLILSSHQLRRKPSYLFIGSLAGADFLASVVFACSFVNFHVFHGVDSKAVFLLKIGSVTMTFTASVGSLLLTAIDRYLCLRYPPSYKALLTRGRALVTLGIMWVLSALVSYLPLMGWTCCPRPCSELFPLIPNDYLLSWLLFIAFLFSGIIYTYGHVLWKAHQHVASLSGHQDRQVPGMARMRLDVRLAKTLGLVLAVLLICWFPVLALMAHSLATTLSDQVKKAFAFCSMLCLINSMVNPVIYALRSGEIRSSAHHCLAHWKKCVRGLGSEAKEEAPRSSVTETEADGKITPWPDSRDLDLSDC
Method: as §2, with “chamber. The total number of beam interruptions during the 10-min period was determined and presented as total counts.” for “chamber.”

human CB1 receptor [7] = target: T1, human CB1 receptor; assay: [35S]GTPγS binding assay in membranes of CB1 expressing cells; type: biochemical
Method: as §1, §2

[8] = 1 mg of analog in 1 ml of water, visual observation

For `CCCCCc1cc(O)c2c(c1)OC(C)(C)C1CCC(C)=CC21` (stereo not drawn) [Δ^9-THC, Δ^9-tetrahydrocannabinol, reference compound], the ED50 (mice [1]) was 2.23 µmol/kg, the ED50 (mice [2]) was 2.77 µmol/kg and the “Activity in the behavioral tests after i.c.v. injection” value (mice [3]) was “active with similar potencies in all tests, with the exception of weak antinociceptive activity”. The “Solubility (water-soluble)” value [4, 8] was “No” and the ED50 (mice [5]) was 2.23 µmol/kg.
For `CC1=CC[C@@H]2[C@@H](C1)c1c(O)cc(C(C)(C)CCCCN(C(=O)N3CCOCC3)C(=O)N3CCOCC3)cc1OC2(C)C` [O-2620, Di(morpholino-1-carboxylic acid) amide], the Ki (human CB1 receptor [6]) was 3020 ± 579 nM and the Ki (human CB2 receptor; read-out: CB2 Ki) was 772 ± 60.5 nM.
With `CC1=CC[C@@H]2[C@@H](C1)c1c(O)cc(C(C)(C)CCCCNC(=O)Cc3nc(-c4ccccc4)oc3C)cc1OC2(C)C` [O-2590, 5-Methyl-2-phenyl-oxazol-4-yl-acetamide] the Ki (human CB1 receptor [6]; Table 1B, mean±SEM) was 890 ± 161 nM, the Ki (human CB2 receptor; CB2 Ki) was 169 ± 39.1 nM and the “Solubility (water-soluble)” value [4, 8] was “No”.
Molecule `CC1=CC[C@@H]2[C@@H](C1)c1c(O)cc(C(C)(C)CCCCNC(=O)N3CCOCC3)cc1OC2(C)C` [O-2619, Morpholino-1-carboxylic acid amide] has an EC50 (human CB1 receptor [7]; CB1 EC50, [35S]GTPγS binding, mean±SEM) of 86 ± 3.1 nM, an Emax (human CB1 receptor [7]; maximal GTPγS binding as percentage of stimulation produced by CP 55,940, read-out: CB1 % CP Stim) of 116 ± 7.94% and a Ki (human CB1 receptor [6]) of 18.6 ± 3.94 nM. For the same molecule, the Ki (human CB2 receptor; read-out: CB2 Ki) was 2.26 ± 0.38 nM and the “Solubility (water-soluble)” value [4] was “No”.
